Converted amounts (≈) assume the structure as drawn. “Also recorded” adds a separate entry of the source. Blank lines part the entries; values can stand above or below the compound they belong to.
Legend:
[1] = Solubility studies, shake-flask method in 15 solvents; format: physicochemical; details: for solubility at 24 h: 20° C.
Experimental: The solubility of BHBA-001 (characterised by XRPD as Form 1) was determined in 15 solvents to study the initial polymorphic behaviour. A shake-flask method was applied in which solid was added stepwise (e.g., 10 mg at a time) to a known amount of solvent (e.g., 3 mL). The solubility was confirmed visually. After the addition, the suspension/solution was held for 24 hours at 20° C. in order to check for slow dissolution or recrystallization. If the solid was not completely dissolved, the suspension was heated to 50° C. to encourage dissolution. The solvent was then removed by evaporation, in some cases, with the help of anti-solvent. The resulting solid was analysed using XRPD.

RARβ [2] = target: T1, RARβ (Homo sapiens, UniProt P10826); assay: Transcriptional transactivation assay, gal4-RAR fusion receptor / luciferase reporter in COS-7 cells; format: cell-based; details: Table 21
T1 construct: expressed in transfected cells; host or cells: COS-7
T1 sequence (P10826 183-417 limits assumed): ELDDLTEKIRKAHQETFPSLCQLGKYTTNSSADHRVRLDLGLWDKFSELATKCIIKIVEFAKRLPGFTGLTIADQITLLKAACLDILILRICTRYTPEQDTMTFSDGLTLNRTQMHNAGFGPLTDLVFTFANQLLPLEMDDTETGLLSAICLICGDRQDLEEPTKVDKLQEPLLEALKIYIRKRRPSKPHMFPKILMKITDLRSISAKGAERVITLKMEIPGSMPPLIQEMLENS
Experimental: (§1) Transcriptional transactivation assays were performed with gal4 fusion receptor constructs, created using each of the RAR ligand binding domains of either mouse or human, co-transfected with the pFR-luc (Stratagene) reporter construct in COS-7 cells.
(§2) Briefly, on day 1, 96 well plates were seeded with 8000 cells per well then left to recover overnight. On day 2, the cells were co-transfected with 100 ng of reporter plasmid and 10 ng of the appropriate receptor plasmid per well using lipofectamine (Invitrogen). On day 3, the lipofectamine containing media was replaced by a DMEM without phenol red, followed by the addition of test compound dissolved in 1 μL of DMSO to each well's 100 μL total volume. Finally, on day 4, the cells were lysed and their luciferase substrate was provided by the BrightGlo™ reagent (Promega), the plates were then read on the MicroBeta TrLux™ (Perkin Elmer).
(§3) Data for test compounds are quoted as EC50 values. Where replicate data has been generated, the data are quoted as the mean EC50 from the separate experiments.

RARβ [3] = target: T2, RARβ (Mus musculus, UniProt P22605); assay: as above; format: cell-based
T2 construct: expressed in transfected cells; host or cells: COS-7
T2 sequence (P22605 210-444 limits assumed): T1 sequence (P10826 183-417 limits assumed)
Experimental: as §1, §2, §3

[4] = system: rats with severed and re-implanted sensory roots at the level of the left forelimb; assay: Sensory roots of four DRG severed and re-implanted into the spinal cord, sticky tape tests; format: in vivo; details: rat, after 5 weeks, 1 mg/kg three times a week
Experimental: In another example of nerve injury, the four sensory roots from each of four DRG at the level of the left forelimb were severed and re-implanted into the spinal cord.
The results are illustrated in Borthwick et al., 2016. […] Rats were treated with 1 mg/kg of the test compound or vehicle two days after lesion, and then three times a week for the period of the experiment. Error bars show SEM. ***P<0.001, students t test, n=3-4 rats for each treatment group. At weeks 3, 4, and 5, there was significant difference between the rats treated with RARβ agonist as compared to rats treated with other retinoid agonists and vehicle.

[5] = Dynamic vapour sorption (DVS) hygroscopicity; format: physicochemical; details: from DVS, 0% to 95% RH
Experimental: The DVS studies were performed using a Surface Measurement Systems Ltd. DVS-1 No Video (Equipment #2126).
The sample was weighed in a glass pan, typically 20-30 mg, and equilibrated at 0% RH. After the material had dried, the relative humidity (RH) was increased with 10% per step for 1 hour per increment, ending at 95% RH.
The software used for data collection was DVSWn v3.01 No Video. Data analysis was performed using DVS Standard Analysis Suite v6.3.0 (Standard).
To determine the hygroscopicity of Form 1, a DVS plot was measured at 25° C. for a double sorption-desorption cycle. The total mass uptake was 8.7% w/w between 0% and 95% RH, which characterised Form 1 as a hygroscopic form. The uptake was reversible and reproducible.
To determine the hygroscopicity of Form 4, a DVS plot was measured at 25° C. for a double sorption-desorption cycle. The total mass uptake was 0.1% between 0% and 95% RH, which characterises Form 4 as a non-hygroscopic form.

[6] = Stability studies on storage (appearance, drug content, water content, drug-related impurities); format: physicochemical
Experimental: Stability studies were performed as follows. Samples were packaged in double low density polyethylene bags, sealed with plastic ties, and placed in high-density polyethylene (HDPE) drums.
The samples were tested periodically for visual appearance, drug content (by HPLC), water content (by Karl Fischer titration), and drug-related impurities (by HPLC).
Drug content, corrected to a water and solvent free basis, is calculated from the following equation: Content (%)=100−(water+solvents+residue on ignition+related impurities).
Drug-related impurities were determined using a reverse-phase gradient HPLC method with UV detection at 254 nm, using a 150 mm×4.6 mm, 3 μm Waters Atlantis T3 column, with the following parameters: […]

cerebellar neurons = assay: Neurite outgrowth assay, cerebellar neurons in the presence of myelin / MAG; format: cell-based, rat; details: for Effect on RARβ agonist (CD2019) mediated neurite outgrowth: cerebellar neurons cultured with CD2019 plus inhibitor; for Effect on RARβ agonist (CD2019) mediated neurite outgrowth in the presence of MAG: cerebellar neurons
Experimental: Cerebellar neurons isolated from post-natal day 3 rat pups were cultured over monolayers of parental 3T3 cells in control media, or media supplemented with a recombinant MAG-Fc chimera (R&D Systems) used at a final concentration of 20 μg/mL MAG-Fc. The monolayers were established for 24 hours prior to addition of the neurons and the co-cultures were maintained for approximately 21 hours. Following careful fixation with 4% paraformaldehyde, the neurons were immuno-stained with a GAP-43 antibody (from Graham Wilkin, Imperial College), dilution of 1:500, and the mean length of the longest neurite per cell was measured for approximately 120-150 neurons as previously described (see, e.g., Williams et al., 2005). DRG and cortical explants were obtained from adult rats, they were cultured in cellogen as previously described (see, e.g., Corcoran and Maden, 1999). Three explants per treatment were used. Neurite outgrowth was assessed 3 days later by immunohistochemistry with NF200 (Sigma, dilution of 1:200). The average lengths of the neurites were measured using image pro plus software. Media consisted of DMEM-F12 (Invitrogen) containing N2 (Invitrogen) supplemented with glucose (33 mM) and glutamine (2 mM).

[7] = after 24 months at 25° C./60% RH and 6 months at 40° C./75% RH

SMILES: Cc1ccc(C)c2oc(-c3nc(-c4ccc(C(=O)O)cc4)no3)cc12 [BHBA-001, 4-(5-(4,7-dimethylbenzofuran-2-yl)-1,2,4-oxadiazol-3-yl)benzoic acid]
Solubility (in words) ([1]; in most solvents of the 15 tested): only poorly soluble | solubility at 24 h ([1]; organic solvent or mixture, thermodynamic from solid, 1-propanol, starting solid Form 1): < 3000 µg/mL | solubility at 24 h ([1]; organic solvent or mixture, thermodynamic from solid, 2-methyltetrahydrofuran, starting solid Form 1): 5000 to 10000 µg/mL (≈ 15 to 29.9 mM) | solubility at 24 h ([1]; organic solvent or mixture, thermodynamic from solid, 2-propanol, starting solid Form 1): < 3000 µg/mL | solubility at 24 h ([1]; organic solvent or mixture, thermodynamic from solid, acetic acid, starting solid Form 1): < 4000 µg/mL | solubility ([1]; organic solvent or mixture, thermodynamic from solid, acetone, at 50° C. (footnote), starting solid Form 1): < 3000 µg/mL | solubility at 24 h ([1]; organic solvent or mixture, thermodynamic from solid, acetonitrile, starting solid Form 1): < 4000 µg/mL | solubility at 24 h ([1]; organic solvent or mixture, thermodynamic from solid, dichloromethane, starting solid Form 1): < 3000 µg/mL | solubility at 24 h ([1]; organic solvent or mixture, thermodynamic from solid, ethanol, starting solid Form 1): < 4000 µg/mL | solubility at 24 h ([1]; organic solvent or mixture, thermodynamic from solid, ethyl acetate, starting solid Form 1): < 4000 µg/mL | solubility at 24 h ([1]; organic solvent or mixture, thermodynamic from solid, isopropyl acetate, starting solid Form 1): 4000 µg/mL (≈ 12 mM) | solubility at 24 h ([1]; organic solvent or mixture, thermodynamic from solid, methyl tert-butyl ether, starting solid Form 1): < 3000 µg/mL | solubility at 24 h ([1]; organic solvent or mixture, thermodynamic from solid, n-heptane, starting solid Form 1): < 3000 µg/mL | solubility at 24 h ([1]; organic solvent or mixture, thermodynamic from solid, tetrahydrofuran (THF), starting solid Form 1): 9000 to 30000 µg/mL (≈ 26.9 to 89.7 mM) | solubility at 24 h ([1]; organic solvent or mixture, thermodynamic from solid, toluene, starting solid Form 1): < 3000 µg/mL | solubility at 24 h ([1]; thermodynamic from solid, water, starting solid Form 1): < 3000 µg/mL | Selectivity over RARα (RARβ [2]): 23-fold | Selectivity over RARγ (RARβ [2]): 5-fold | Selectivity over RARγ (RARβ [3]; Mouse, Table 21): 6-fold | EC50 (RARβ [3]; Table 20, mean of three or more determinations, species not given, value equals mouse value of Table 21): < 2 nM | Behavioural test (sticky tape) [4]: performed as well as non-lesioned animals

SMILES: CCCCCCOC(=O)[C@]1(O)C[C@@H]2O[C@@]1(C)n1c3ccccc3c3c4c(c5c6ccccc6n2c5c31)C(=O)NC4 [KT5720]
Effect on RARβ agonist (CD2019) mediated neurite outgrowth (cerebellar neurons): little or no effect | Effect on RARβ agonist (CD2019) mediated neurite outgrowth in the presence of MAG (cerebellar neurons): does not affect

SMILES: O=c1cc(N2CCOCC2)oc2c(-c3ccccc3)cccc12 [LY295002]
Effect on RARβ agonist (CD2019) mediated neurite outgrowth (cerebellar neurons): severely impeded | Effect on RARβ agonist (CD2019) mediated neurite outgrowth in the presence of MAG (cerebellar neurons): prevents

The next lines start with results.

Hygroscopicity characterisation [5]: hygroscopic
SMILES: Cc1ccc(C)c2oc(-c3nc(-c4ccc(C(=O)O)cc4)no3)cc12 [Form 1, 4-(5-(4,7-dimethylbenzofuran-2-yl)-1,2,4-oxadiazol-3-yl)benzoic acid]

Storage time shown to be stable ([6]; 25° C./60% RH): at least 24 months | Drug Content ([6]; 25° C./60% RH, 3 months): 98.7 % w/w | Drug-Related Impurities ([6]; 25° C./60% RH, 3 months): 0.06 % area | Visual Appearance ([6]; 25° C./60% RH, 3 months): As initial | Water content ([6]; 25° C./60% RH, 3 months): <0.1 % w/w | Drug Content ([6]; 25° C./60% RH, 6 months): 100.2 % w/w | Drug-Related Impurities ([6]; 25° C./60% RH, 6 months): 0.05 % area | Visual Appearance ([6]; 25° C./60% RH, 6 months): As initial | Water content ([6]; 25° C./60% RH, 6 months): <0.1 % w/w | Drug Content ([6]; 25° C./60% RH, 9 months): 99.2 % w/w | Drug-Related Impurities ([6]; 25° C./60% RH, 9 months): 0.03 % area | Visual Appearance ([6]; 25° C./60% RH, 9 months): As initial | Water content ([6]; 25° C./60% RH, 9 months): <0.1 % w/w | Drug Content ([6]; 25° C./60% RH, 12 months): 100.4 % w/w | Drug-Related Impurities ([6]; 25° C./60% RH, 12 months): 0.03 % area | Visual Appearance ([6]; 25° C./60% RH, 12 months): Off-white | Water content ([6]; 25° C./60% RH, 12 months): <0.1 % w/w | Drug Content ([6]; 25° C./60% RH, 18 months): 101.1 % w/w | Drug-Related Impurities ([6]; 25° C./60% RH, 18 months): 0.07 % area | Visual Appearance ([6]; 25° C./60% RH, 18 months): Off-white | Water content ([6]; 25° C./60% RH, 18 months): <0.1 % w/w | Drug Content ([6]; 25° C./60% RH, 24 months): 101.5 % w/w | Drug-Related Impurities ([6]; 25° C./60% RH, 24 months): <0.03 % area | Visual Appearance ([6]; 25° C./60% RH, 24 months): As initial | Water content ([6]; 25° C./60% RH, 24 months): <0.1 % w/w | Storage time shown to be stable ([6]; 40° C./75% RH): ≥ 6 months | Drug Content ([6]; 40° C./75% RH, 3 months): 98.3 % w/w | Drug-Related Impurities ([6]; 40° C./75% RH, 3 months): 0.10 % area | Visual Appearance ([6]; 40° C./75% RH, 3 months): As initial | Water content ([6]; 40° C./75% RH, 3 months): <0.1 % w/w | Drug Content ([6]; 40° C./75% RH, 6 months): 99.8 % w/w | Drug-Related Impurities ([6]; 40° C./75% RH, 6 months): 0.05 % area | Visual Appearance ([6]; 40° C./75% RH, 6 months): As initial | Water content ([6]; 40° C./75% RH, 6 months): <0.1 % w/w | Drug Content ([6]; Initial, 0 months): 100.1 % w/w | Drug-Related Impurities ([6]; Initial, 0 months): 0.03 % area | Visual Appearance ([6]; Initial, 0 months): White | Water content ([6]; Initial, 0 months): <0.1 % w/w | Change of appearance on storage [6, 7]: essentially unchanged | Change of drug content on storage [6, 7]: essentially unchanged | Change of drug-related impurity levels on storage [6, 7]: essentially unchanged | Change of water content on storage [6, 7]: essentially unchanged | Stability at ambient conditions (in words) ([6]; ambient conditions): stable for many months
SMILES: Cc1ccc(C)c2oc(-c3nc(-c4ccc(C(=O)O)cc4)no3)cc12 [Form 4, 4-(5-(4,7-dimethylbenzofuran-2-yl)-1,2,4-oxadiazol-3-yl)benzoic acid]
Hygroscopicity characterisation [5]: low hygroscopicity; also recorded: non-hygroscopic
